Here are results for four molecules from patent publication US8178579B2, “Dioxanes and uses thereof” (President and Fellows of Harvard College, priority 2001, dated 2012).

In series [1] the target is T1, Ure2p (Saccharomyces cerevisiae, UniProt P23202).
T1 construct: endogenous in cells; host or cells: yeast strain DB26-3A (MAT-a ura3-52 ade2 PUT1-lacZ)
T1 sequence (P23202 1-354): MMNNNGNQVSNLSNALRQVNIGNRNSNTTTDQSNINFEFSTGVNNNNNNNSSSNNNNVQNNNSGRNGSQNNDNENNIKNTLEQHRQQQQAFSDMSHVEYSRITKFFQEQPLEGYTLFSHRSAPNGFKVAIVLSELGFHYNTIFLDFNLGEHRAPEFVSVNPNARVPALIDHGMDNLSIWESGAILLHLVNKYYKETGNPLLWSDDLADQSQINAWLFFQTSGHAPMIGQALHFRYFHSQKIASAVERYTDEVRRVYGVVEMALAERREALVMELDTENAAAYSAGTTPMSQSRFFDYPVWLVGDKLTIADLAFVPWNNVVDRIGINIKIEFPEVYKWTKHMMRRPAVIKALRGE
As to the kind of experiment: PUT1-lacZ reporter β-galactosidase assay. It counts as cell-based. The note with it: yeast in YPD, 30 °C, 60-90 min; rapamycin 50 nM. The method, then:
(§1) FIG. 24 depicts studies in vivo, dose response and structure-activity relationships of uretupamine. (A) A yeast strain (DB26-3A) growing in YPD medium expressing a PUT1-lacZ reporter was treated with 50 nM rapamycin or with a compound that had been detected to bind to labelled Ure2p on a small-molecule microarray. After 90 min of treatment at 30° C., a standard liquid b-galactosidase assay was performed. Data are expressed in fold Miller units compared with treatment with 50 nM rapamycin for 90 minutes. DB26-3A (MAT-a ura3-52 ade2 PUT1-lacZ) was a gift from M. Brandriss. Vehicle: samples treated with N,N-dimethylformamide (DMF), the vehicle into which library compounds were dissolved (B): Uretupamine A was resynthesized and tested in the b-galactosidase assay by using the PUT1-lacZ reporter at the concentrations indicated for 60 min at 30 C in YPD medium. (C) Compounds derived from the uretupamine A structure were synthesized to explore structure-activity relationships. Listed are b-galactosidase assay results of treatment with each compound at 100 μM (asterisk designates 50 μM) for 60 min at 30 C in YPD medium. Data are in percentage Miller units compared with treating with 50 nM rapamycin for 60 min. […] (D) Binding of uretupamine B to Ure2p was determined by using surface plasmon resonance (BIAcore 3000) to have a dissociation constant of 7.5 μM. […]

For series [2], the target named is T1, Ure2p. Briefly: surface plasmon resonance (BIAcore 3000) binding to immobilized Ure2p. The arrangement: species or system yeast. The note with it: PBS/Tween-20 with 10% DMF, read-out: equilibrium dissociation constant for binding to Ure2p. The procedure: as §1
On the technique in general: Surface plasmon resonance follows binding to a sensor surface in real time, without labels.

A further series concerns Ure2p-controlled genes. As to the kind of experiment: whole-genome transcription profiling of yeast strains. To be noted: 100 μM, 30 min. It counts as cell-based. The procedure:
FIG. 25 depicts transcription profiling of treatment with uretupamine. (A) The left microarray corresponds to wild-type cells (PM38) treated with vehicle (DMF) versus wild type (w.t.) cells treated for 30 min with uretupamine A at 100 μM. The right microarray corresponds to ure2Δ cells (PH2) treated with vehicle versus ure2Δ cells treated for 30 min with uretupamine A at 100 μM. Profiles were obtained as described (Hardwick et al. Proc. Natl. Acad. Sci. USA 1999, 96, 14866-14870). At the right are shown specific gene inductions of some URE2-dependent genes from the microarrays. PM38 (MATaleu2-3,112 ura3-52), PM71 (MA4Taleu2-3, 112 ura3-52 gln3Δ5::LEU2), MS221 (MATaura3-52 nil1::hisG), PH2 (MATaleu2-3, 112 ura3-52 ure2Δ12::URA3) were gifts from B. Magasanik and M. Brandriss. (B) The transcription profiles of wild-type cells (PM38), ure2Δ cells (PH2), gln3Δ cells (PM71) and nil1Δ cells (MS221) grown in YPD medium treated for 30 min with 100 μM uretupamine B were obtained. The geometric means of gene inductions of the sets listed are shown. (C) An analysis was performed based on treating individual profiles as high-dimensional vectors and then examining the ratios of their magnitudes as a measure of relative activity (Shamji et al. Curr. Biol. 2000, 10, 1574-1581; Kuruvilla et al. Genome Biol. 2002, 3(3), 0011.1-0011.11).
To determine the precise effects and specificity of uretupamine, whole-genome transcription profiling was used in wild-type cells as well as an otherwise isogenic ure2D strain-a ‘targetless’ strain (Marton et al. Nature Med 1998, 4, 1293-1301). […] The expression of other genes (including GAP1, MEP2, AGP1, BAT2 and DAL5) controlled by Ure2p was essentially unchanged (FIG. 25A,B).

Series [3] in a line: solubility in yeast medium. It counts as physicochemical. To be noted: higher concentrations.
The target of a further series is T2, HDAC1 (Homo sapiens, UniProt Q13547).
T2 construct: made in house; host or cells: TAg-Jurkat cells, transient transfection, then immunoprecipitation
As to the kind of experiment: HDAC assay, [3H]acetate-incorporated histones with immunoprecipitated FLAG-tagged HDAC1. It counts as biochemical. To be noted: calculated IC50, data in duplicate, at least two experiments; read-out: IC50 against HDAC1. The procedure:
(§2) Cell culture and Transfections. TAg-Jurkat cells were transfected by electroporation with 5 μg of FLAG-epitope-tagged pBJ5 constructs (as described in ref. 5c) for expression of recombinant proteins. Cells were harvested 48 h posttransfection.
HDAC assays. [^3H]Acetate-incorporated histones were isolated from butyrate-treated HeLa cells by hydroxyapatite chromatography (as described in Tong, et al. Nature 1997, 395, 917-921.) Immunoprecipitates were incubated with 1.4 μg (10,000 dpm) histones for 3 h at 37° C. HDAC activity was determined by scintillation counting of the ethyl acetate-soluble [^3H]acetic acid (as described in Taunton, et al., Science 1996, 272, 408-411). Compounds were added in DMSO such that final assay concentrations were 1% DMSO. IC50s were calculated using Prism 3.0 software. Curve fitting was done without constraints using the program's Sigmoidal-Dose Response parameters. All data points were acquired in duplicate and IC50s are calculated from the composite results of at least two separate experiments.

Another series deals with HeLa cells. As to the kind of experiment: high throughput microscopy of HeLa cells. To be noted: single-compound assays. It counts as cell-based. From the text: The cellular basis of these phenotypes has not been investigated. No phenotypes consistent with mitotic arrest were observed.
In the next series the target is T3, HDAC6 (Homo sapiens, UniProt Q9UBN7).
T3 sequence (Q9UBN7 1-1215): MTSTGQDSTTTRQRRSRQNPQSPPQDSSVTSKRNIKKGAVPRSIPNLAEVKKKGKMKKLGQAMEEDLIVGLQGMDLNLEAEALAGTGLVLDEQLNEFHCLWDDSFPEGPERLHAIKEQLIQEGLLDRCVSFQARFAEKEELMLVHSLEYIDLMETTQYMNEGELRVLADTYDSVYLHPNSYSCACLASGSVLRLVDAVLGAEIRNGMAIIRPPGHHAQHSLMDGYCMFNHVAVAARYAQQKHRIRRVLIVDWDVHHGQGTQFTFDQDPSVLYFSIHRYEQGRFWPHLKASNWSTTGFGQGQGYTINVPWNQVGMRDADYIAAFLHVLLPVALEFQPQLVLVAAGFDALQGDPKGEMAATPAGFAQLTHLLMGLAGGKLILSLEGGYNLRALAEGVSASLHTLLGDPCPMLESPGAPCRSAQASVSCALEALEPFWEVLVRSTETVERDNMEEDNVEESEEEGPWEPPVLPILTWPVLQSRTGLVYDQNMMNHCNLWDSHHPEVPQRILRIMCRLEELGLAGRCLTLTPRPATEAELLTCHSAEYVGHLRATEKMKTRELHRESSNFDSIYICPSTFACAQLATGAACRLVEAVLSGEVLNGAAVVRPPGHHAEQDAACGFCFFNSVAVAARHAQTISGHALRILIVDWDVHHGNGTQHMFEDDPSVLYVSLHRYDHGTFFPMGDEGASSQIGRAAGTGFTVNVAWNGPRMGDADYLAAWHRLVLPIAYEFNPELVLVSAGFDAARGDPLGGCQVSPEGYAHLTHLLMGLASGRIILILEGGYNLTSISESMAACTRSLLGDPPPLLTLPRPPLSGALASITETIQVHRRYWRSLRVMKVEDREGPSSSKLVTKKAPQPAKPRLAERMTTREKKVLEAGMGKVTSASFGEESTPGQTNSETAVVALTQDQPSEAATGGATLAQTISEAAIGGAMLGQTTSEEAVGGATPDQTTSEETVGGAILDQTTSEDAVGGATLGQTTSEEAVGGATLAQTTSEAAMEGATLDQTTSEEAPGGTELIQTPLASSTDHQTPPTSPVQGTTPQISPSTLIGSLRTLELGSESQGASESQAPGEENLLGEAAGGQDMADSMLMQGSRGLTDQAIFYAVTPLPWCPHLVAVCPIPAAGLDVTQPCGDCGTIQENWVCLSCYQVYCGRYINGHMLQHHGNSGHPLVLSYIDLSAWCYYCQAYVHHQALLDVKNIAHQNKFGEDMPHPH
As to the kind of experiment: HDAC assay, [3H]acetate-incorporated histones with immunoprecipitated FLAG-tagged HDAC6 (HDAC6F). It counts as biochemical. The arrangement: made in house; host or cells: TAg Jurkat cells, transient transfection, anti-FLAG M2 immunoprecipitation. The note with it: calculated IC50, data in duplicate, at least two experiments; read-out: IC50 against HDAC6. The procedure:
as §2
HDAC assays. […] Compounds were added in DMSO such that final assay concentrations were 1% DMSO. IC50s were calculated using Prism 3.0 software. Curve fitting was done without constraints using the program's Sigmoidal-Dose Response parameters. All data points were acquired in duplicate and IC50s are calculated from the composite results of at least two separate experiments.
Tubulin and MAPs were isolated from bovine brain as described [See http://mitchison.med.harvard.edu/protocols/tubprep.html]. Whole brain and fractions from phosphocellulose chromatography were blotted for HDAC6 and acetylated α-tubulin. Cultured hippocampal neurons from dissociated 1-day old rat brains were transfected with an enhanced green fluorescent protein (EGFP)-actin construct at 4-5 days using the calcium phosphate method [E. N. Star, D. J. Kwiatkowski and V. N. Murthy, Nat. Neurosci. […] K. Miranti and M. E. Greenberg, J. Neurosci. […] Transfected cultures were allowed to grow for at least 48 h before the addition of experimental compounds.
[^3H]Acetate-incorporated histones were isolated from butyrate-treated HeLa cells as described [J. Taunton, C. […] Immunoprecipitates were incubated with acetylated histones and HDAC activity determined by scintillation counting as described [J. Taunton, C. […] TDAC assays were performed with immunoprecipitates using MAP-stabilized microtubules polymerized from MAP-rich tubulin fraction as described [C. […] Reactions were incubated (2 h) at 37° C., then incubated on ice (15 min).

pIC50, pKd: −log10 of the molar value.

T2 sequence (Q13547 whole entry): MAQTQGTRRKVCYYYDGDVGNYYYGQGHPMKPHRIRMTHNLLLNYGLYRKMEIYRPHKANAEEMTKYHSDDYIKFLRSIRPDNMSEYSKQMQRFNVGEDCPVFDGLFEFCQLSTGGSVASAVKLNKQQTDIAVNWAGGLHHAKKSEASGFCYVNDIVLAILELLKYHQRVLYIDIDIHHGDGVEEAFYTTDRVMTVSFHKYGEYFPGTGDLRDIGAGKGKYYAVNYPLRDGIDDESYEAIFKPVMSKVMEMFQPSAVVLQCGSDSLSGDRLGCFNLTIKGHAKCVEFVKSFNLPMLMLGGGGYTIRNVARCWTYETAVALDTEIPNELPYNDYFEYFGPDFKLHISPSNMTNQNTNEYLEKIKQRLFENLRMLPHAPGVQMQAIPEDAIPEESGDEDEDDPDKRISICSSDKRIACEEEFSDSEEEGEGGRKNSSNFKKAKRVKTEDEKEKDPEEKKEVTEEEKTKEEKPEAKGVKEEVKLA

Consider `NCc1ccc([C@@H]2O[C@H](CSc3nc(-c4ccccc4)c(-c4ccccc4)o3)C[C@H](c3ccc(CO)cc3)O2)cc1` (relative stereo) [uretupamine B], for which, at Ure2p [1], the “activation of PUT1-lacZ reporter” value is listed as “more potent than uretupamine A”. Further, the pKd on Ure2p [2] is 5.12. Besides, in the series on Ure2p-controlled genes, the “gene induction in gln3Δ strain” value is recorded as “deleting GLN3 had little effect on the actions of uretupamine”, the “gene induction in nil1Δ strain” value is on record as “deleting NIL1 abrogated its actions”, the “gene induction in ure2Δ strain” value is “little or no effect on either set of genes” and the “gene induction in wild-type cells” value is listed as “upregulated only a subset of genes”. In addition, the “solubility in yeast medium” value in series [3] is reported as “more soluble derivative”.
For `Cc1ccc(S(=O)(=O)N[C@@H](Cc2ccccc2)C(=O)Nc2cccc(C3O[C@H](CN4CCC(O)(c5ccc(Cl)cc5)CC4)[C@H](C)[C@H](c4ccc(CO)cc4)O3)c2)cc1` (stereo partly shown) [compound 11], the pIC50 at HDAC1 and at HDAC6 was less than 4.30 in each case. Besides, the “phenotype in HeLa cells by microscopy” value in the series with HeLa cells is on record as “cell detachment”.
Consider `O=S(=O)(NCc1ccc(C2O[C@H](CSc3ccc(O)cc3)C[C@H](c3ccc(CO)cc3)O2)cc1)c1ccccc1` (mixture of isomers) [compound 12, (±)-N-[[4-(4R,6S)-4-[4-(hydroxymethyl)phenyl]-6-[[4-hydroxyphenyl)thio]methyl]-1,3-dioxan-2-yl]phenyl]methyl-benzenesulfonamide], for which the “phenotype in HeLa cells by microscopy” value in the series with HeLa cells is “altered actin staining phenotype”.
`NCc1ccc([C@@H]2O[C@H](CSc3nc(-c4ccccc4)c(-c4ccccc4)o3)[C@@H](c3ccccc3)[C@H](c3ccc(CO)cc3)O2)cc1` (relative stereo) [uretupamine A]: the “activation of PUT1-lacZ reporter” value at Ure2p [1] is reported as “gave a concentration dependent dose response that at higher concentrations approached the levels of reporter gene activation induced by rapamycin”. Moreover, the pKd at Ure2p [2] was 4.74. For the same molecule, in the series with Ure2p-controlled genes, the “gene induction in ure2Δ strain” value is “little or no effect on either set of genes” and the “gene induction in wild-type cells” value is listed as “upregulated only a subset of genes”. Also, the “solubility in yeast medium” value in series [3] is reported as “poor solubility at higher concentrations in yeast medium”.

A word on the pIC50: it is −log10 of the IC50, conventionally taken in molar units.
